Measurements as given in PMC12914920, “Novel glycine amides, semicarbazides and fluoroallylamines as inhibitors of the amine oxidase vascular adhesion protein-1 (VAP-1)” (RSC Medicinal Chemistry, 2026).

Target: T1, VAP-1 in human plasma (Homo sapiens, UniProt Q16853)
T1 construct: from tissue; host or cells: human whole plasma from donated blood (Münster University Hospital)
T1 sequence (Q16853 27-763 limits assumed): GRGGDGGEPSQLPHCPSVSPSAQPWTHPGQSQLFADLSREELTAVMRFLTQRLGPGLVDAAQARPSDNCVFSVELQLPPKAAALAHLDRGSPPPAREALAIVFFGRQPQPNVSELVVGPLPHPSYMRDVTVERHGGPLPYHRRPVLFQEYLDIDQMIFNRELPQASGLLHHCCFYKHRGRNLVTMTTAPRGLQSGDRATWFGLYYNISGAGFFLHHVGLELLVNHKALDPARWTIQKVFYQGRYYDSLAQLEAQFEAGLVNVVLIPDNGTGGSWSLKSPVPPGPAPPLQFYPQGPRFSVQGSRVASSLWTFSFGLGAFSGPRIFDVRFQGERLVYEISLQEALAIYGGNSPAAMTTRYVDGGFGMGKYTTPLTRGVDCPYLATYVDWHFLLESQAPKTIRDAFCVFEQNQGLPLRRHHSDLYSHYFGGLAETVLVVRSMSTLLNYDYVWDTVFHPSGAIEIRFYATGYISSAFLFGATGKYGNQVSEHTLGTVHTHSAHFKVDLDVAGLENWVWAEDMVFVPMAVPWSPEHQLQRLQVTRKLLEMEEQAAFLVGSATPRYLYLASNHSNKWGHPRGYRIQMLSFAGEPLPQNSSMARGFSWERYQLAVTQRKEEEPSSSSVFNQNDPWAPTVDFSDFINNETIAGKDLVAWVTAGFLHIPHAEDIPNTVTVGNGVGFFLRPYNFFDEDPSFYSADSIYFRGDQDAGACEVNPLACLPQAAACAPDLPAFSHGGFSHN
Assay: Inhibition of VAP-1 activity in human whole plasma
Format: biochemical
Conditions: 15 min pre-incubation of enzyme and inhibitor
Experimental: Preparation of human plasma: Human blood was collected in S-Monovette® Lithium-Heparin LH/7.5 mL (Sarstedt, Nümbrecht, Germany) during a blood donation at Münster University Hospital. Each about 5 mL of blood were pipetted into 10 mL Falcon Tubes and subsequently centrifuged at 1500 × g at 20 °C for 15 min. Aliquots of 800 μL plasma were transferred into 2 mL Eppendorf tubes and stored at −80 °C until further use.
Incubation procedure: A solution of the appropriate inhibitor in DMSO (concentration variable) (1.25 μL) was treated with human whole plasma (47.5 μL) and pre-incubated at 37 °C for 15 min. Subsequently, the enzyme reaction was started by the addition of a solution of the substrate 6-(5-phenyl-2H-tetrazol-2-yl)hexan-1-amine[47] (10 mM) in DMSO (1.25 μL). After 2 h of incubation, acetonitrile (50 μL) was added. The samples were cooled in an ice bath for 10 min and centrifuged at 12 000 × g and 10 °C for 10 min. […] Controls with DMSO (1.25 μL) instead of a DMSO solution of the inhibitor (1.25 μL) were prepared in the same manner in parallel (n = 3). Blanks were run by incubating a mixture of the substrate solution in DMSO and DMSO (1.25 μL each) and 47.5 μL of PBS in the same way. […] The peak ratios of enzyme product and internal standard obtained in the absence and presence of a test compound were compared, corrected for the blank value.

N#Cc1ccc(-c2nnn(Cc3cccc(CNC(=O)CN)c3)n2)cc1 [Compound 63]
IC50: 320 nM
